From ChEMBL document CHEMBL1152033, “Spiro-piperidine non-peptide neurokinin-1 receptor antagonists” (Bioorg Med Chem Lett, 1995)

Target: Substance-P receptor (Homo sapiens, UniProt P25103)
Test: Binding affinity measured by displacement of tritiated radiolabeled substance P from cloned human NK1 receptor expressed in CHO cell membranes

Substance-P receptor, sequence (P25103 whole entry): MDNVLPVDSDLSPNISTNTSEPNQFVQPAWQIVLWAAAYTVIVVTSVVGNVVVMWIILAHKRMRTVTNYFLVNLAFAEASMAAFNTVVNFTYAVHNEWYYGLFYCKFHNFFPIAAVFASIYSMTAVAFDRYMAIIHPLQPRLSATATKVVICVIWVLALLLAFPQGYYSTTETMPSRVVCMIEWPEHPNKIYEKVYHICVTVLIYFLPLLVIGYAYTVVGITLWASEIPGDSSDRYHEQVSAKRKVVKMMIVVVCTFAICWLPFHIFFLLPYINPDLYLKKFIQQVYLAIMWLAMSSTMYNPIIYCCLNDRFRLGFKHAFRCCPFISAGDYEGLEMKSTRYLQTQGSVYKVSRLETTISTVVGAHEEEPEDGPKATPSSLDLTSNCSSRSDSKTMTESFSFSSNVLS

Ki [nM]	Structure (SMILES)
39.8	COc1ccccc1CN[C@H]1CCCN[C@]12CCc1ccccc12
> 1000	COc1ccccc1CN[C@H]1CCCN[C@@]12CCc1ccccc12
